Each block holds one molecule with its values, some of them ahead of it.
How the values were obtained:
Type in all cases: binding
[1] = molecular target: T1, OaPAC (photoactivated adenylate cyclase) (Oxynema acuminatum, UniProt K9TLZ5); assay: ITC (also nanoDSF, SAXS titration, CD); parameters: gene Oscil6304_3613; Full-length OaPAC (366 aa, homodimer), dark-adapted state
T1 sequence (K9TLZ5 1-366): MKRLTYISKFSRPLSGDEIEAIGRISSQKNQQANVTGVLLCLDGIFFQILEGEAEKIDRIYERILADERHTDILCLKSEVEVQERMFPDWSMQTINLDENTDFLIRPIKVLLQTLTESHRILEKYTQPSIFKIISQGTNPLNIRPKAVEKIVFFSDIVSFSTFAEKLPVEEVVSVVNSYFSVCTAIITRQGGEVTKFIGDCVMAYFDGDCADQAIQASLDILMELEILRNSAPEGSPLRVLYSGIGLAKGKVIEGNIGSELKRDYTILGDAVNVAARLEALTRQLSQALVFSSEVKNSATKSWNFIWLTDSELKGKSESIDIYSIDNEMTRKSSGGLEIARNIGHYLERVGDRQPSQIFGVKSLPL

[2] = molecular target: T1, OaPAC (photoactivated adenylate cyclase); assay: steady-state fluorescence anisotropy; stopped-flow fluorescence (KD […]); parameters: gene Oscil6304_3613; Full-length OaPAC (366 aa, homodimer)
[3] = molecular target: T1, OaPAC (photoactivated adenylate cyclase); assay: ITC (also nanoDSF, DSC, flavin-emission thermal shift, SAXS); parameters: gene Oscil6304_3613; Full-length OaPAC (366 aa, homodimer), dark-adapted state

SMILES: Nc1ncnc2c1ncn2[C@@H]1O[C@H](COP(=O)(O)OP(=O)(O)OP(=O)(O)O)[C@@H](O)[C@H]1O [ATP]
Kd [1]: 3.24 ± 1.9 µM

Kd [2]: 2.25 ± 0.4 µM
SMILES: CNc1ccccc1C(=O)O[C@H]1[C@@H](O)[C@H](n2cnc3c(N)ncnc32)O[C@@H]1CO[P@@](=O)(O)O[P@](=O)(O)OP(=O)(O)O [mantATP]

SMILES: Nc1ncnc2c1ncn2[C@@H]1O[C@H](COP(=O)(O)CP(=O)(O)OP(=O)(O)O)[C@@H](O)[C@H]1O [ApCpp, Adenosine-5’-[(α,β)-methyleno]triphosphate]
Kd [3]: 5.92 ± 5.06 µM

Source: article PMC10837130, “ATP-dependent conformational dynamics in a photoactivated adenylate cyclase revealed by fluorescence spectroscopy and small-angle X-ray scattering” (Communications Biology, 2024)
